# Measurements as given in patent US20250388896A1, “COMPOSITION AND METHODS FOR TRANSGENE INSERTION” (ARTISAN DEVELOPMENT LABS, INC, priority 2022, published 2025).
# Columns and labels:
# [1] = system: AAVS1; experiment: CAR insertion efficiency at AAVS1 in primary T-cells by flow cytometry; assay type: cell-based, human; conditions: primary Pan T-cells; recovery medium pretreated with 2 μM M3814; 75:50 pmol gNA:MAD7, 1.5 μg μL^−1 donor template, PGA
# Experimental: T-cells were isolated from human peripheral blood obtained from healthy adults by immune-magnetic negative selection using the EasySep Human T-cell Isolation Kit ([sequence] Technologies). After isolation, T-cells were activated in 25 μL mL^−1 ImmunoCult Human CD3/CD28/CD2 T-Cell Activator ([sequence] Technologies) in ImmunoCult-XF T-Cell Expansion Medium ([sequence] Technologies) containing 12.5 ng mL^−1 Human Recombinant IL-2, 5 ng mL^−1 IL-7, and 5 ng mL^−1 IL-15 ([sequence] Technologies) and seeded at 1.0×10^6 cells mL^−1. Until transfection 48 hours later, the cells were cultured at 37° C. in 5% CO2 incubators.
# Donor templates comprising site-specific homology arms, respective promoter, and respective gene (GFP or Hu19 scFv-CD8α-CD28-CD3ζ CAR) were amplified from corresponding pTwist Ampicillin high-copy plasmids (Twist Bioscience) using homology arms-specific PCR primers. […] Purified HDR templates were collected and quantified on NanoDrop One Microvolume UV-Vis Spectrophotometer (ThermoFisher Scientific). […] HDR templates were collected, diluted, and concentrations quantified using Qubit dsDNA HS Assay Kit (ThermoFisher Scientific). […]
# [2] = system: AAVS1 locus; experiment: INDEL frequency at the AAVS1 locus in Jurkat cells; assay type: cell-based, human
# Experimental: Ribonucleoprotein complexes (RNPs) were generated by incubating respective guide nucleic acids (gNAs) with MAD7 in the molar ratio of 3:2 gNA:MAD7 for 15 minutes at room temperature immediately before transfection. For Jurkat experiments, the RNP complexes were generated by mixing the respective gNA (150 pmol), MAD7 (100 pmol), and nuclease-free water, unless otherwise stated. […] Lonza 4D Nucleofector with Shuttle unit (V4SC-2960 Nucleocuvette Strips) was used for transfection, following the manufacturer's instructions. […] Extracted genomic DNA was quantified using the NanoDrop (ThermoFisher Scientific). […] The DNA was eluted from the beads with nuclease-free water and the size of the purified amplicons analyzed on a 2% agarose E-gel using the E-gel electrophoresis system (ThermoFisher Scientific). In the second PCR, unique pairs of Illumina-compatible indexes (Nextera XT Index Kit v2) were added to the amplicons using the KAPA HiFi HotStart Ready Mix (Roche). […] Sizes of the purified DNA fragments were validated on a 2% agarose gel using the E-gel electrophoresis system (ThermoFisher Scientific), quantified using Qubit dsDNA HS Assay Kit (Thermo Fisher) and then pooled in equimolar concentrations. […] The final library was sequenced on Illumina MiSeq System using the MiSeq Reagent Kit v.2 (300 cycles, 2×250 bp, paired-end reads). […]
Compound,more efficient CAR insertion than other experiments [1],activity of gNA targeting AAVS1 (INDEL frequency) [2]
COc1ccc([C@@H](O)c2cc(-c3ncnc4cc(N5CCOCC5)ccc34)c(F)cc2Cl)nn1 [M3814],~5 times,
"crAAVS1: highly active gNA targeting the AAVS1 safe-harbor locus (guide TTAGGATGGCCTTCTCCGACG; listed as DNA, further chemistry not given here)",,highly active
